Like-named read-outs stand apart in the source and are kept apart here.
Tests used:
recombinant EphB4 [1] = molecular target: T1, recombinant EphB4 (Homo sapiens, UniProt P54760); experiment: biochemical
T1 sequence (P54760 563-987): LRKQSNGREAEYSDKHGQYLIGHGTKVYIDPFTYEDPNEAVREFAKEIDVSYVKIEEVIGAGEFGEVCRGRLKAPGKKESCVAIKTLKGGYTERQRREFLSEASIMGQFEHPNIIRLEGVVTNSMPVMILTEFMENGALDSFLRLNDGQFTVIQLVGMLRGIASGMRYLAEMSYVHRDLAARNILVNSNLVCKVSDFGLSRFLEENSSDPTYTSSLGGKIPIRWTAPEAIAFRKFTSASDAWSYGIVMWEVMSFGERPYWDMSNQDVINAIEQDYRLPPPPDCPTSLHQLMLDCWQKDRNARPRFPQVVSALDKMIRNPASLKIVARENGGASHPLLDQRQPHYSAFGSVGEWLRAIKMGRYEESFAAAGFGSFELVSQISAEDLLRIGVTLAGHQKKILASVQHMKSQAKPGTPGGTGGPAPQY
Description: (§1) This assay detects inhibitors of EphB4-mediated phosphorylation of a polypeptide substrate using Alphascreen™ luminescence detection technology. […] The reaction was stopped by addition of EDTA, together with streptavidin-coated donor beads which bind the biotin-substrate containing any phosphorylated tyrosine residues. Anti-phosphotyrosine antibodies present on acceptor beads bind to phosphorylated substrate, thus bringing the donor & acceptor beads into close proximity. Subsequent excitation of the donor beads at 680 nm generated singlet oxygen species that interact with a chemiluminescer on the acceptor beads, leading to light emission at 520-620 nm. The signal intensity is directly proportional to the level of substrate phosphorylation and thus inhibition is measured by a decrease in signal.
(§2) To ensure that each well contained a total of 120 nl DMSO the wells were all backfilled as required. […] The test range of compounds was 100× the required final concentration.
(§3) Assay plates were then incubated at room temperature for 1 hour.
(§4) For assays using compounds prepared via acoustic dispensing, the assay mix was adjusted such that the final assay volume of 12 ul contained the same concentration of reagent as 10 ul of assay mix used when aqueous compounds were tested.
(§5) The plates were sealed under natural lighting conditions, wrapped in aluminium foil and incubated in the dark for a further 20 hours.
(§6) The resulting assay signal was determined on the Perkin Elmer EnVision plate reader. The minimum value was subtracted from all values, and the signal plotted against compound concentration to generate IC50 data. The method used to generate the compound dilutions was recorded with the IC50 value in the database.

EphB4 = molecular target: T2, EphB4 (Homo sapiens, UniProt P54760); experiment: In vitro EphB4 cell assay (EphB4 phosphorylation ELISA in EphB4-CHO cells); type: cell-based
T2 construct: to generate full-length EphB4 containing a Myc-His tag at the C-terminus; expressed in transfected cells
T2 sequence (P54760 16-987): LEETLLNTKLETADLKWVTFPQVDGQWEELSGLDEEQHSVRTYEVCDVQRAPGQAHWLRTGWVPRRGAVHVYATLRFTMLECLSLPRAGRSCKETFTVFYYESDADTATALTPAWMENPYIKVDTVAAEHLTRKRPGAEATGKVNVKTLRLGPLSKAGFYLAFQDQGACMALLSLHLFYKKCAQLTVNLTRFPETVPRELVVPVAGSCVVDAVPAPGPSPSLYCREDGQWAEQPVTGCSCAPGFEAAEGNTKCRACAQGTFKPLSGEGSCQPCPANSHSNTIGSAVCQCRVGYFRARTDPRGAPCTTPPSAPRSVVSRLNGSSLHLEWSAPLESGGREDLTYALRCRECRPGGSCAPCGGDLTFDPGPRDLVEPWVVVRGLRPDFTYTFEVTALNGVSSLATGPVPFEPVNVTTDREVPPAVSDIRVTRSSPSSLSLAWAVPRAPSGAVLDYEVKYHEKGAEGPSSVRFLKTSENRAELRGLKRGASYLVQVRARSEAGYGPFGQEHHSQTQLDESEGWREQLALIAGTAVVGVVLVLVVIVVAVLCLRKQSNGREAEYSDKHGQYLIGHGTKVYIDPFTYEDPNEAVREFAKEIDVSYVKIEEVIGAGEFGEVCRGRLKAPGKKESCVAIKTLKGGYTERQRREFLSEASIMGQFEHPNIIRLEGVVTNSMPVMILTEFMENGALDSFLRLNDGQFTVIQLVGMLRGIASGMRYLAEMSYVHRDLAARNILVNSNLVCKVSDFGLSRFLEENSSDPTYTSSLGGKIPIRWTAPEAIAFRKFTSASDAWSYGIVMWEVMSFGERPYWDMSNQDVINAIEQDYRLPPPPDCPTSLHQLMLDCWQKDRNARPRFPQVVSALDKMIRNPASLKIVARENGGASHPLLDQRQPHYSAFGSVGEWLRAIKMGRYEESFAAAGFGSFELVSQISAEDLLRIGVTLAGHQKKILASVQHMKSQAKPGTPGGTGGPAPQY
Experimental: The assay identifies inhibitors of cellular EphB4 by measuring a decrease in phosphorylation of EphB4 following treatment of cells with compound. The endpoint assay used a sandwich ELISA to detect EphB4 phosphorylation status. Briefly, Myc-tagged EphB4 from treated cell lysate was captured on the ELISA plate via an anti-c-Myc antibody. The phosphorylation status of captured EphB4 was then measured using a generic phosphotyrosine antibody conjugated to HRP via a colourimetric output catalysed by HRP, with level of EphB4 phosphorylation directly proportional to the colour intensity. Absorbance was measured spectrophotometrically at 450 nm.
Full length human EphB4 (Swiss-Prot Acc. No. P54760) was cloned using standard techniques from cDNA prepared from HUVEC using RT-PCR. The cDNA fragment was then sub-cloned into a pcDNA3.1 expression vector containing a Myc-His epitope tag to generate full-length EphB4 containing a Myc-His tag at the C-terminus (Invitrogen Ltd. Paisley, UK). […] CHO-K1 cells were engineered to stably express the EphB4-Myc-His construct using standard stable transfection techniques, to generate cells hereafter termed EphB4-CHO. […]
Plates were washed twice with PBS/0.05% Tween-20 and incubated with 100 μl/well cell lysate overnight at 4° C. […] The absorbances were determined at 450 nm using the Tecan SpectraFluor Plus. […]

recombinant EphB4 [2] = molecular target: T1, recombinant EphB4; details: read-out: EphB4 enzyme assay Mean IC50 value; Method of compound preparation: Genesis (aqueous compound preparation); * = tested once only
Description: as §1, §2, §3, §4, §5, §6

[3] = EphB4 enzyme assay Mean IC50 value, Method of compound preparation: Genesis (aqueous compound preparation), * = tested once only
[4] = EphB4 enzyme assay Mean IC50 value, Method of compound preparation: Echo (acoustic dispensing), * = tested once only

Row | Compound | IC50 (recombinant EphB4 [1]; [3]) [nM] | IC50 (recombinant EphB4 [1]; [4]) [nM] | further results
1 | Cc1cnc(C)c(N(C)c2ccnc(Nc3cc(N4CCOCC4)cc(N4CCOCC4)c3)n2)c1 [Example 7c, N′-(2,5-dimethylpyridin-3-yl)-N-(3,5-dimorpholin-4-ylphenyl)-N′-methyl-pyrimidine-2,4-diamine] | 384 |  | 
2 | COc1cnc(Cl)c(N(C)c2ccnc(Nc3cc(N4CCOCC4)cc(N4CCOCC4)c3)n2)c1 [Example 9, N′-(2-chloro-5-methoxy-pyridin-3-yl)-N-(3,5-dimorpholin-4-ylphenyl)-N′-methyl-pyrimidine-2,4-diamine] |  | 10.7 | 
3 | Cc1ccc(CO)nc1N(C)c1ccnc(Nc2cc(N3CCOCC3)cc(N3CCOCC3)c2)n1 [Example 10, (6-((2-(3,5-dimorpholinophenylamino)pyrimidin-4-yl)(methyl)amino)-5-methylpyridin-2-yl)methanol] |  | 141 | 
4 | CN(c1cc(Cl)ccn1)c1ccnc(Nc2cc(N3CCOCC3)cc(N3CCOCC3)c2)n1 [Example 2a, N′-(4-chloropyridin-2-yl)-N-(3,5-dimorpholin-4-ylphenyl)-N′-methyl-pyrimidine-2,4-diamine] |  |  | IC50 (recombinant EphB4 [1]; IC50 in assay A, method of compound preparation not stated): 405 nM; IC50 (EphB4): 197 nM
5 | COc1cnc(C)c(N(C)c2ccnc(Nc3cc(N4CCOCC4)cc(N4CCOCC4)c3)n2)c1 [Example 7d, N-(3,5-dimorpholin-4-ylphenyl)-N′-(5-methoxy-2-methyl-pyridin-3-yl)-N′-methyl-pyrimidine-2,4-diamine] |  | 4.37 | 
6 | Cc1ccc(N(C)c2ccnc(Nc3cc(N4CCOCC4)cc(N4CCOCC4)c3)n2)cn1 [Example 7a, N-(3,5-dimorpholin-4-ylphenyl)-N′-methyl-N′-(6-methylpyridin-yl)pyrimidine-2,4-diamine] | 116 |  | 
7 | Cc1ncc(CO)cc1N(C)c1ccnc(Nc2cc(N3CCOCC3)cc(N3CCOCC3)c2)n1 [Example 13, [5-[[2-[[3,5-di(morpholin-4-yl)phenyl]amino]pyrimidin-4-yl]-methylamino]-6-methylpyridin-3-yl]methanol] |  | 66.9 | 
8 | COc1cc(N(C)c2ccnc(Nc3cc(N4CCOCC4)cc(N4CCOCC4)c3)n2)cnc1Cl [Example 8a, N′-(6-chloro-5-methoxy-pyridin-3-yl)-N-(3,5-dimorpholin-4-ylphenyl)-N′-methyl-pyrimidine-2,4-diamine] | 106 |  | 
9 | Cc1cccc(N(C)c2ccnc(Nc3cc(N4CCOCC4)cc(N4CCOCC4)c3)n2)n1 [Example 11, N-[3,5-di(morpholin-4-yl)phenyl]-N′-methyl-N′-(6-methylpyridin-2-yl)pyrimidine-2,4-diamine] | > 14400 | 207 | 
10 | CN(c1cccc(Cl)n1)c1ccnc(Nc2cc(N3CCOCC3)cc(N3CCOCC3)c2)n1 [Example 4, N′-(6-chloropyridin-2-yl)-N-(3,5-dimorpholin-4-ylphenyl)-N′-methyl-pyrimidine-2,4-diamine] | 611 |  | 
11 | N′-(4-chloropyridin-4-yl)-N-(3,5-dimorpholin-4-ylphenyl)-N′-methyl-pyrimidine-2,4-diamine [Example 2b] |  |  | IC50 (recombinant EphB4 [2]): 207 nM
12 | Cc1cc(N(C)c2ccnc(Nc3cc(N4CCOCC4)cc(N4CCOCC4)c3)n2)cnc1Cl [Example 8b, N′-(6-chloro-5-methyl-pyridin-3-yl)-N-(3,5-dimorpholin-4-ylphenyl)-N′-methyl-pyrimidine-2,4-diamine] | 166 |  | 
13 | CN(c1ccc(Cl)nc1)c1ccnc(Nc2cc(N3CCOCC3)cc(N3CCOCC3)c2)n1 [Example 6, N4-(6-chloropyridin-3-yl)-N2-(3,5-dimorpholinophenyl)-N4-methylpyrimidine-2,4-diamine] | 201 |  | 
14 | Cc1ccc(N(C)c2ccnc(Nc3cc(N4CCOCC4)cc(N4CCOCC4)c3)n2)nc1 [Example 12, N-[3,5-di(morpholin-4-yl)phenyl]-N′-methyl-N′-(5-methylpyridin-2-yl)pyrimidine-2,4-diamine] | 250 | 158 | 
15 | CN(c1cncc(Cl)c1)c1ccnc(Nc2cc(N3CCOCC3)cc(N3CCOCC3)c2)n1 [Example 3, N′-(5-chloropyridin-3-yl)-N-(3,5-dimorpholin-4-ylphenyl)-N′-methyl-pyrimidine-2,4-diamine] | 49 | 11.6 | 

From patent US20090054428A1, “NOVEL PYRIMIDINE DERIVATIVES 965” (ASTRAZENECA AB, priority 2007, published 2009)
